Common to all, as to experiment: activity-based probe competition assay, rhomboid panel
The target of one assay is T1, AarA (Providencia stuartii, UniProt P46116).
T1 construct: made in house
T1 sequence (P46116 1-281): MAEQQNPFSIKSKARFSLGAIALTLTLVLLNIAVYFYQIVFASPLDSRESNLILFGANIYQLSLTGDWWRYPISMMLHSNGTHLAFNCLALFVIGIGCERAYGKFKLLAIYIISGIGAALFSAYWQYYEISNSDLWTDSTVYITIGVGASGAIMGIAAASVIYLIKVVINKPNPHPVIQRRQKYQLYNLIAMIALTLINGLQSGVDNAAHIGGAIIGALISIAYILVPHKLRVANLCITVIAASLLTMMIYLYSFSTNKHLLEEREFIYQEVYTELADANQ
In kind it is biochemical. The settings on record: 50 μM and 0.5 μM; outcompeted the ABP even at 500 nM. An excerpt:
(§1) Any enzyme inhibitors to be used as specific tools for cell biology or as starting points for drug development must show sufficient level of selectivity toward their intended target. This is particularly important for compounds that react with the catalytic nucleophile common to many serine hydrolases. […] To map the selectivity of peptidyl ketoamides more objectively and widely, we employed activity-based probe (ABP) competition assays that enable a more general and substrate-independent measurement of inhibitory potency, because they rely solely on the competition between a fluorescently labeled activity-based probe and the tested inhibitor ([Nguyen et al., 2015], [Serim et al., 2012]). The assays we employed used fluorophosphonate ABPs that target the catalytic serine of a wide-range of serine hydrolases ([Bachovchin et al., 2014]), including rhomboids ([Xue et al., 2012]), and are thus very practical general detection reagents even for serine hydrolases for which sensitive substrates might not be available.
(§2) Figure 5 Selectivity of Peptidyl Ketoamides (A) Selectivity of compounds 9, 10, and 11 for nine rhomboid proteases was profiled using activity-based probe competition assay at 50 μM and 0.5 μM concentration. The upper limit of enzyme concentration was 0.4 μM. (B) Selectivity of compounds 9, 10, and 11 against human serine hydrolases was analyzed using EnPlex as described ([Bachovchin et al., 2014]).
(§3) For inhibitor selectivity profiling against rhomboid proteases ([Wolf et al., 2015]), 400 ng of a purified protein preparation of E. coli GlpG was diluted in 30 μL of reaction buffer (20 mM HEPES, pH 7.4, with 0.05% (w/v) DDM). For other rhomboids, amounts were taken that gave similar labeling intensity during profiling. Rhomboids were incubated for 30 min at room temperature with the indicated concentration of compound, 100 μM DCI as positive control, or an equal volume of DMSO as negative control. Next, TAMRA-FP serine hydrolase probe (Thermo Fisher #88318) was added to a final concentration of 1 ìM and incubated for 2 h at 37°C in the dark. The reaction was stopped by addition of 4× Laemmli buffer and the reaction mixture was resolved on 15% SDS-PAGE. Gels were scanned on a Typhoon Trio+ and analyzed using ImageJ. The intensity of each rhomboid protease band calculated by ImageJ was normalized against its corresponding DMSO-treated counterpart (100% activity) to indicate the residual activity left after inhibition. The remaining activity was used to calculate the percentage of inhibition depicted in the heatmap. Selectivity profiles against human serine hydrolases were determined by EnPlex as described previously ([Bachovchin et al., 2014]).

Another assay addresses T2, HiGlpG (Haemophilus influenzae, UniProt P44783).
T2 construct: made in house
In kind it is biochemical. The note with it: 50 μM and 0.5 μM; outcompeted the ABP even at 500 nM.
Description: as §1, §2, §3

For a further assay, the target named is T3, MmRHBDL3 (Mus musculus, UniProt P58873).
T3 construct: made in house
T3 sequence (P58873 1-404): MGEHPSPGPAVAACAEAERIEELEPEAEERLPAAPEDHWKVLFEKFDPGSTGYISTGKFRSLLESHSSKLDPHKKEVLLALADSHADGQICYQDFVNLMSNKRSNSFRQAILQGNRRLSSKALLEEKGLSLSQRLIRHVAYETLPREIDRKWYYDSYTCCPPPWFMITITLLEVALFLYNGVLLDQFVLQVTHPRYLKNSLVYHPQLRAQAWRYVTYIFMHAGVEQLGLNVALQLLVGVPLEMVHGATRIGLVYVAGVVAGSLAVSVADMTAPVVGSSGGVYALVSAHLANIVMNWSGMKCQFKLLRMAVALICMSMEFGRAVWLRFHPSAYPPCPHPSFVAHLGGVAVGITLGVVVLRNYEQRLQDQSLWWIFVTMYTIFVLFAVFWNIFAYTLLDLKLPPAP
The assay is classed as biochemical. The settings on record: 50 μM and 0.5 μM.
Description: as §1, §2, §3

The target of a further assay is T4, DmRho1 (Drosophila melanogaster, UniProt P20350).
T4 construct: made in house
T4 sequence (P20350 1-355): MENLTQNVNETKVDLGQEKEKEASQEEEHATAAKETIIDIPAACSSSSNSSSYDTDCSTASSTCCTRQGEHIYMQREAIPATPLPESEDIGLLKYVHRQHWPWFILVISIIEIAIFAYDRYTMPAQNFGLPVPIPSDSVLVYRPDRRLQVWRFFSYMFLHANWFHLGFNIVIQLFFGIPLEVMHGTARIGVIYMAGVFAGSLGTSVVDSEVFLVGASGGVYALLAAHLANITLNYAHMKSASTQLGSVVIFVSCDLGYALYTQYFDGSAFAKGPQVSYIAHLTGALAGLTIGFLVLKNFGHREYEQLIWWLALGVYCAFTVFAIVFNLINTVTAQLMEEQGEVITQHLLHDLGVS
In kind it is biochemical. The settings on record: 50 μM and 0.5 μM.
Description: as §1, §2, §3

The next assay concerns AaROM. In kind it is biochemical, Aquifex aeolicus. The settings on record: 50 μM and 0.5 μM.
Description: as §1, with “The assays we employed used fluorophosphonate ABPs that target the catalytic serine of a wide-range of serine hydrolases ([Bachovchin et al., 2014]), including rhomboids ([Xue et al., 2012]), and are thus very practical general detection reagents even for serine hydrolases for which sensitive substrates might not be available.” left out
Figure 5 Selectivity of Peptidyl Ketoamides (A) Selectivity of compounds 9, 10, and 11 for nine rhomboid proteases was profiled using activity-based probe competition assay at 50 μM and 0.5 μM concentration. […] (B) Selectivity of compounds 9, 10, and 11 against human serine hydrolases was analyzed using EnPlex as described ([Bachovchin et al., 2014]).
For inhibitor selectivity profiling against rhomboid proteases ([Wolf et al., 2015]), 400 ng of a purified protein preparation of E. coli GlpG was diluted in 30 μL of reaction buffer (20 mM HEPES, pH 7.4, with 0.05% (w/v) DDM). […] Gels were scanned on a Typhoon Trio+ and analyzed using ImageJ. […]

Starred links: 1 amine or outer side, 2 acyl side, 3 side chain; linkers in the order of their positions; H or OH if unused. Non-standard residues stand in square brackets, D forms with d. Residues, ends and D or L forms follow the SMILES beside them. *: point of attachment. NH(4-phenylbutyl) = c1ccc(CCCCN*)cc1; X1 = C[C@H](N[*:1])C(=O)C(=O)[*:2]; NHPhenethyl = c1ccc(CCN*)cc1

T2 sequence (P44783 whole entry): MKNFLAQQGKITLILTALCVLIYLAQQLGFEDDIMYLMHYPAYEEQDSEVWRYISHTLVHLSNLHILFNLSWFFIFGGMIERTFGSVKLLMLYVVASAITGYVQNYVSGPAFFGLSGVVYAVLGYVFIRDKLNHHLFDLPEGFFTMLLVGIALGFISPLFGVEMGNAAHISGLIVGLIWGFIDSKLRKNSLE

Turning to `CC(=O)N[C@@H](CCCNC(=N)N)C(=O)N[C@H](C(=O)N[C@@H](CCCNC(=N)N)C(=O)N[C@@H](Cc1c[nH]cn1)C(=O)N[C@@H](C)C(=O)C(=O)NCCCCc1ccccc1)C(C)C` [compound 11, Ac-RVRHA-CONH-phenylbutyl] (Ac-RVRH[X1]-{NH(4-phenylbutyl)}), the “competition with ABP labeling of AarA” value on AarA is “potently competed”. Also, the “competition with ABP labeling of HiGlpG” value on HiGlpG is “potently competed”. Further, the “competition with ABP labeling of MmRHBDL3” value at MmRHBDL3 is recorded as “none of these compounds were able to compete”. In addition, at DmRho1, the “competition with ABP labeling of DmRho1” value is “none of these compounds were able to compete”. In addition, in the assay with AaROM, the “competition with ABP labeling of AaROM” value was “none of these compounds were able to compete”.

On to `CC(=O)N[C@@H](CCCNC(=N)N)C(=O)N[C@H](C(=O)N[C@@H](CCCNC(=N)N)C(=O)N[C@@H](Cc1c[nH]cn1)C(=O)N[C@@H](C)C(=O)C(=O)NCCc1ccccc1)C(C)C` [compound 9, Ac-RVRHA-CONH-phenylethyl] (Ac-RVRH[X1]-NHPhenethyl), for which, at AarA, the “competition with ABP labeling of AarA” value is “potently competed”. The “competition with ABP labeling of HiGlpG” value on HiGlpG was “potently competed”. Besides, at MmRHBDL3, the “competition with ABP labeling of MmRHBDL3” value is “none of these compounds were able to compete”. Moreover, the “competition with ABP labeling of DmRho1” value at DmRho1 is recorded as “none of these compounds were able to compete”. Moreover, the “competition with ABP labeling of AaROM” value with AaROM is “none of these compounds were able to compete”.

(Values after article PMC5746060, “General and Modular Strategy for Designing Potent, Selective, and Pharmacologically Compliant Inhibitors of Rhomboid Proteases” (Cell Chemical Biology, 2017).)
